Laboratory results: ChEMBL document CHEMBL1201862, “PubChem BioAssay data set” (2004)
Active and inactive are the calls of the source.

Assays:
[1] = molecular target: NAD-dependent protein deacylase sirtuin-5, mitochondrial (Homo sapiens, UniProt Q9NXA8); test: sirtuin-5 deacylation blockers, concentration series – biochemical, fluorescence imaging, cherry-pick, set 5, dose response (AID 720591);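 note: desuccinylation of succinyl peptide AMC substrate read as fluorescence after trypsin release; potency of inhibitors that lower fluorescence and may act on trypsin instead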
cells [2] = test: cells
Leucine aminopeptidase = molecular target: T1, Leucine aminopeptidase (Plasmodium falciparum 3D7, UniProt Q8IL11); test: P. falciparum M17LAP inhibitors, primary screen, biochemical, fluorogenic H-Leu-NHMec substrate, 1536-well (AID 1619); format: functional
T1 sequence (Q8IL11 whole entry): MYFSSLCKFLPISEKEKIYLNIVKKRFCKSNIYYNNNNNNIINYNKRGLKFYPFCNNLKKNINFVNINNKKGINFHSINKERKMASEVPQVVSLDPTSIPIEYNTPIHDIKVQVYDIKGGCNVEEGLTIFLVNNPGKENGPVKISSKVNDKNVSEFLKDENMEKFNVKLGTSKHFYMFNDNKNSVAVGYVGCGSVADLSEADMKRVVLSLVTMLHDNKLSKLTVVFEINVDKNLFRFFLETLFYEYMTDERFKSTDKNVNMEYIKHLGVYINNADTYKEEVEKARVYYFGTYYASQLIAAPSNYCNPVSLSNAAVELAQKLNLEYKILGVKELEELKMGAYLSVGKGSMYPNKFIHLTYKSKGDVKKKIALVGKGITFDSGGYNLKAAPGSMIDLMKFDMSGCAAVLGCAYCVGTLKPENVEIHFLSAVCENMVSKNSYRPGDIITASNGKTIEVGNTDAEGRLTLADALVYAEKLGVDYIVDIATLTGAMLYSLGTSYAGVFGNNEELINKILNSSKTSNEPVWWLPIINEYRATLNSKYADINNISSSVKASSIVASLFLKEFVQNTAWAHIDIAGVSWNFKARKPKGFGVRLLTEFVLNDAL

[3] = molecular target: FAD-linked sulfhydryl oxidase ALR (Homo sapiens, UniProt P55789); test: ALR-catalysed DTT oxidation blockers – biochemical, H2O2 detection, luminescence, cherry-pick, dose response (AID 493248)
[4] = molecular target: T2, DNA repair protein RAD52 homolog (Homo sapiens, UniProt P43351); format: functional, biochemical
T2 sequence (P43351 whole entry): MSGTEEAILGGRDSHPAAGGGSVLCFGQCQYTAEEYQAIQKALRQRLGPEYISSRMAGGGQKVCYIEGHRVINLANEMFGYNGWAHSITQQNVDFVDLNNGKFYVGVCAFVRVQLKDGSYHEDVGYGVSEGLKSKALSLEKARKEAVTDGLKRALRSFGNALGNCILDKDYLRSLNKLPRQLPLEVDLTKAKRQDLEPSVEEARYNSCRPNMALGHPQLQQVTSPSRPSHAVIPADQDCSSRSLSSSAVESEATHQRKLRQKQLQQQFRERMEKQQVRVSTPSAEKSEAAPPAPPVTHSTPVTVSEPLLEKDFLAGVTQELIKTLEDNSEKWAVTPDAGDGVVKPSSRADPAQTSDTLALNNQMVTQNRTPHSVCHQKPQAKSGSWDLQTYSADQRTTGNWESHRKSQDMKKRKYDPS

Mucolipin-3 = molecular target: T3, Mucolipin-3 (Homo sapiens, UniProt Q8TDD5); test: Dose response cell-based high-throughput screening assay for agonists of the transient receptor potential channel ML3 (TRPML3). [Related pubchem assays: 1526, 1424, 1448 ]; format: functional
T3 sequence (Q8TDD5 whole entry): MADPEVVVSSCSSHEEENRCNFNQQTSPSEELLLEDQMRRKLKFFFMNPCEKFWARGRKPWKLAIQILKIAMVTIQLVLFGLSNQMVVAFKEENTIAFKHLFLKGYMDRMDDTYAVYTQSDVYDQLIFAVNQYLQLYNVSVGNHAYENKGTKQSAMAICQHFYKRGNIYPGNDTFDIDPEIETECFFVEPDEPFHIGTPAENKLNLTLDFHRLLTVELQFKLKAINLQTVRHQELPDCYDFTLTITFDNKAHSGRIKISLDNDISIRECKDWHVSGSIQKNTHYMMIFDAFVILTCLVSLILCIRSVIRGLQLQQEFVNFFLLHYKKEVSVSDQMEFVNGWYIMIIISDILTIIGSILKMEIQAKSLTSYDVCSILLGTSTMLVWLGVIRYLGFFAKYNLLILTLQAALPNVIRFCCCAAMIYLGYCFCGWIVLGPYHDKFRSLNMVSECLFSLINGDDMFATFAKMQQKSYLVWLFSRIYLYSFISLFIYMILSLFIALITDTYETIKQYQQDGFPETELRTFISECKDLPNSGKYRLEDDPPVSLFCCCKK

Ion channel NompC = Ion channel NompC (Danio rerio, UniProt Q7T1G6); test: Fluorescence counterscreen assay for TRPML3 agonists: dose response cell-based high-throughput screening assay to identify agonists of the transient receptor potential channel N1 (TRPN1). [Related pubchem assays: 1526, 1424, 1448 ]; format: functional
[5] = molecular target: Glyceraldehyde-3-phosphate dehydrogenase (Homo sapiens, UniProt P04406)
cells [6] = format: functional, cell-based
[7] = molecular target: T4, Trace amine-associated receptor 1 (Homo sapiens, UniProt Q96RJ0); test: Fluorescence-based cell-based high throughput dose response assay to identify agonists of the human trace amine associated receptor 1 (TAAR1).; format: functional
T4 sequence (Q96RJ0 whole entry): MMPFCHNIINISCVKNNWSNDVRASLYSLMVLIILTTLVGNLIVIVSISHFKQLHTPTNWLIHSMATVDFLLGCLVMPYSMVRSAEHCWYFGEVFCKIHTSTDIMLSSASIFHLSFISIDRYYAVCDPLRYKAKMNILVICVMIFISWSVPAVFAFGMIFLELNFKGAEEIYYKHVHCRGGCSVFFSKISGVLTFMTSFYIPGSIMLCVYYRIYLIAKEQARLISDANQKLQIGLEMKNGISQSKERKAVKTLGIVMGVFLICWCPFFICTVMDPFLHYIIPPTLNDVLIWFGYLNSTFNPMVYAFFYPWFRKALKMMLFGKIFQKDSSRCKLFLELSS

[8] = molecular target: T4, Trace amine-associated receptor 1; test: Counterscreen for agonists of the human trace amine associated receptor 1 (hTAAR1): Fluorescence-based cell-based high throughput dose response assay to identify hTAAR1 agonist that also desensitize TAAR1 receptor response.; format: functional
cells [9] = format: functional, cell-based; remark: listed apart in the source
[10] = Luminescence Cell-Based Dose Confirmation HTS to Identify Activators of 5'UTR Stem-Loop Driven Alpha-Synuclein mRNA Translation in H4 Neuroglioblastoma Cells. [Related pubchem assays: 1829 (Project Summary), 1814 (Primary HTS)]; format: functional
[11] = Luminescence Cell-Based Dose Response HTS to Identify Activators of Luciferase Translation or Activity in H4 […] Cells. [Related pubchem assays: 1829 (Project Summary), 1814 (Primary HTS)]; format: functional
H4 = test: Luminescence Cell-Based Dose Response HTS to Identify Activators of 5'UTR Stem-Loop Driven Prion Protein mRNA Translation in H4 Neuroglioblastoma Cells. [Related pubchem assays: 1829 (Project Summary), 1814 (Primary HTS)]; format: functional; settings: Homo sapiens
[12] = M. tuberculosis H37Rv growth inhibitors, H37Rv strain (AID 1626); format: functional
[13] = viability of uninfected HEp-2 cells – cell-based, HTS, cytotoxicity control for RSV inhibitor project, dose response (AID 2410); format: functional; settings: human respiratory syncytial virus
[14] = test system: Streptococcus sp. 'group A'; test: Streptococcus pyogenes SK(-)GAS viability under kanamycin – luminescence, BacTiterGlo, confirmation, counter-screen for streptokinase expression inhibitor project, dose response (AID 1900); format: functional, organism-based
Streptokinase A = molecular target: T5, Streptokinase A (Streptococcus pyogenes serotype M1, UniProt P10520); test: viability-normalized secreted streptokinase activity reduction – plasminogen activation absorbance, OD405, dose response (AID 1914); format: functional, Streptococcus pyogenes M1 GAS;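 note: secreted streptokinase activity via plasminogen activation per viability signal from cell pellet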
T5 sequence (P10520 whole entry): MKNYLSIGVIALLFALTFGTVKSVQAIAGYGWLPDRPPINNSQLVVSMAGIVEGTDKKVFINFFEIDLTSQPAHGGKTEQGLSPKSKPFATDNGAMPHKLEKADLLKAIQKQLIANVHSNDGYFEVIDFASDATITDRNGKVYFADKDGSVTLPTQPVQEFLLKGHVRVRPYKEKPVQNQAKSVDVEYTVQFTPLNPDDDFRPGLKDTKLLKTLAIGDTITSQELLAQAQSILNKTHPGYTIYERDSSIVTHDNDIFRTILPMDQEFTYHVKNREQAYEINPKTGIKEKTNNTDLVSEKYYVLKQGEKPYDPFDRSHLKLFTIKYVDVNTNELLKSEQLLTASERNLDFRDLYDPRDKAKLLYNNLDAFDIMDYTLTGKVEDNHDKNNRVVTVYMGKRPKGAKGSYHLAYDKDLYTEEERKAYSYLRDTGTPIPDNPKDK

Streptococcus = test: GAS UMAA2166 growth inhibition – luminescence, BacTiterGlo, counter-screen for streptokinase expression inhibitor project, dose response (AID 1915); format: functional, organism-based;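 note: potency for reduction of bacterial viability or growth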
[15] = molecular target: T6, Calpain-2 catalytic subunit (Sus scrofa, UniProt P43367); test: m-calpain protease blockers, concentration series – biochemical, fluorogenic peptide substrate, dose response (AID 1420); format: functional
T6 sequence (P43367 whole entry): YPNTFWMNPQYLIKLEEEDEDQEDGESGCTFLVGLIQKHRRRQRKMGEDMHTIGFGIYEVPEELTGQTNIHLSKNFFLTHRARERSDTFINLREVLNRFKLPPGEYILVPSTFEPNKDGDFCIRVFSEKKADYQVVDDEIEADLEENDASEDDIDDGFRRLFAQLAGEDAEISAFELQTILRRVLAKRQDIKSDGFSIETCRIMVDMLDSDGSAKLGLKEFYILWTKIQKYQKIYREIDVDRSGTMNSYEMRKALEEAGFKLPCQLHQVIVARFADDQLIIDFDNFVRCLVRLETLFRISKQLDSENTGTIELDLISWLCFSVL

[16] = viability loss in THP-1 monocytes – THP-1 cells, cytotoxicity control for Vif-APOBEC3G degradation inhibitor project, dose response (AID 1117359); format: functional; settings: THP-1
Vero = test: cells; format: functional, cell-based; settings: Chlorocebus sabaeus
[17] = molecular target: T7, Mannose-6-phosphate isomerase (Homo sapiens, UniProt P34949); test: MPI inhibition at elevated mannose 6-phosphate – biochemical, fluorescence intensity, high mannose 6-phosphate, primary screen (AID 1220)
T7 sequence (P34949 whole entry): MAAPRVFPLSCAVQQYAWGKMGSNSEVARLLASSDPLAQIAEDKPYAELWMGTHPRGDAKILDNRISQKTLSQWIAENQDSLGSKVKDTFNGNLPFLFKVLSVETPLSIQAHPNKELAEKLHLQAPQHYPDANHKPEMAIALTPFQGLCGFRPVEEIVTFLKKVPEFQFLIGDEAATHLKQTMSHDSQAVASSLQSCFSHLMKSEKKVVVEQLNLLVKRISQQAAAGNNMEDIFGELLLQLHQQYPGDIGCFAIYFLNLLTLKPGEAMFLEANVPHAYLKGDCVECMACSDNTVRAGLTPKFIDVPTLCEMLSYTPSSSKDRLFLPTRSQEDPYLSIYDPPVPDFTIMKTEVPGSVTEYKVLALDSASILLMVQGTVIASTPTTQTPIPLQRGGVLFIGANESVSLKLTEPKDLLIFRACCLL

Ion channel NompC, sequence (Q7T1G6 whole entry): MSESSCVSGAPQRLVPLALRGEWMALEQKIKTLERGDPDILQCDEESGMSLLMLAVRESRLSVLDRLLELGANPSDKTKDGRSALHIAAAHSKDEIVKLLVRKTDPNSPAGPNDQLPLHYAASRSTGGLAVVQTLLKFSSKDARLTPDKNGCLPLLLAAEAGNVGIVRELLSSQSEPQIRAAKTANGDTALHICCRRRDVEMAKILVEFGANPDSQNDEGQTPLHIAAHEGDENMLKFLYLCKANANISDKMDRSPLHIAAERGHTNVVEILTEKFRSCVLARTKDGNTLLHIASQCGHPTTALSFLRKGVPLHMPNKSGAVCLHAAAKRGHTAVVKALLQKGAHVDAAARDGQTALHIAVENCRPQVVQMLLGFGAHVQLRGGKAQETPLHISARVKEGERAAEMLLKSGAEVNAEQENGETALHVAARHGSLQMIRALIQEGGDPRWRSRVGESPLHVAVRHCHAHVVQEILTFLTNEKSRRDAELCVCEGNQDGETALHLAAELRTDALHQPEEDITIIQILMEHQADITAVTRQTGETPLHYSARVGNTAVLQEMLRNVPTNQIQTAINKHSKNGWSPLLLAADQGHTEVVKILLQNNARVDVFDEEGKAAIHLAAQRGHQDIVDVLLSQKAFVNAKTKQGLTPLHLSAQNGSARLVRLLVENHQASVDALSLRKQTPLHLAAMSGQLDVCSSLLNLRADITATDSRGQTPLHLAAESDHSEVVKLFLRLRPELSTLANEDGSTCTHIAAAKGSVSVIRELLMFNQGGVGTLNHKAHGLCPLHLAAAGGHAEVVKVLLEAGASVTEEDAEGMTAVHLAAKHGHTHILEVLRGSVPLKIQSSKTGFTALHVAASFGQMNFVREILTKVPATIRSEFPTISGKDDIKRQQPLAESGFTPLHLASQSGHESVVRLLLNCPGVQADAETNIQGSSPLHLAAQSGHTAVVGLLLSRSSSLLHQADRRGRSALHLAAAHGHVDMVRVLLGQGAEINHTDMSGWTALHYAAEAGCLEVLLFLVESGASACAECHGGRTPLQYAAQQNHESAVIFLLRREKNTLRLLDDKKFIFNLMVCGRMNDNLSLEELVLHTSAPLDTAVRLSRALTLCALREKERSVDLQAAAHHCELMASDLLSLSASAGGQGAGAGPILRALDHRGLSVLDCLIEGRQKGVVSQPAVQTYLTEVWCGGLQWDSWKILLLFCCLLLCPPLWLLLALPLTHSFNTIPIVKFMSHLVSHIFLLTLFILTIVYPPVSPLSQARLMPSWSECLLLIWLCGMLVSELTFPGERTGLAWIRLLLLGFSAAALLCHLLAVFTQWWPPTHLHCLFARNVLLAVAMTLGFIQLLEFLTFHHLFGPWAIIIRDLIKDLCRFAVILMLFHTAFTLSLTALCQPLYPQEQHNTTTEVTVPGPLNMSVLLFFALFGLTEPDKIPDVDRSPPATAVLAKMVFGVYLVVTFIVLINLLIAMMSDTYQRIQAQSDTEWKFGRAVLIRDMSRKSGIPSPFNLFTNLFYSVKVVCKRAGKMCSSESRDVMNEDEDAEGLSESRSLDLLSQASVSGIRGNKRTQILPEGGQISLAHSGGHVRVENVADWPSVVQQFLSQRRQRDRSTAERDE
NAD-dependent protein deacylase sirtuin-5, mitochondrial, sequence (Q9NXA8 whole entry): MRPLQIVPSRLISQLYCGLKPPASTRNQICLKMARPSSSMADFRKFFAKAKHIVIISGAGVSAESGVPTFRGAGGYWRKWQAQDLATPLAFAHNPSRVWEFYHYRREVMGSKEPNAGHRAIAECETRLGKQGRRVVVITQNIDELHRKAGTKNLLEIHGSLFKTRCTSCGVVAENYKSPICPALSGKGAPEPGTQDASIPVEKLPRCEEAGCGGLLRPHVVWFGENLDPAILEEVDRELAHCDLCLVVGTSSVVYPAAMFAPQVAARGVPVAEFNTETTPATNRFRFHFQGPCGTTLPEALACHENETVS
FAD-linked sulfhydryl oxidase ALR, sequence (P55789 whole entry): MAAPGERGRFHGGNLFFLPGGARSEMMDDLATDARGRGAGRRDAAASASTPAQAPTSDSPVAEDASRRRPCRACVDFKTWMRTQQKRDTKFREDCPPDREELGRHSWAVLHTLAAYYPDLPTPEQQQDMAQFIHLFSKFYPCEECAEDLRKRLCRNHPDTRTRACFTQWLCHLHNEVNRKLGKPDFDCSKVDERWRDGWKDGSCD
Glyceraldehyde-3-phosphate dehydrogenase, sequence (P04406 whole entry): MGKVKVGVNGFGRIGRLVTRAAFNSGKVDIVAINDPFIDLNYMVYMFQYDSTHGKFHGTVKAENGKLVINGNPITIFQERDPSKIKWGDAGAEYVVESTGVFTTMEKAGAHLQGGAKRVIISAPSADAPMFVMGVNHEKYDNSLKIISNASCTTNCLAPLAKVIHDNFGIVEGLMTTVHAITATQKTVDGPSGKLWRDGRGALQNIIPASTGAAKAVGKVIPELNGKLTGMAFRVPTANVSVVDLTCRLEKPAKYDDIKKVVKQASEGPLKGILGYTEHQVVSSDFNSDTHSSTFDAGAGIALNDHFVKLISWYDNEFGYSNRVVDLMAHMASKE

COC(=O)[C@H](Cc1c[nH]c2ccccc12)NC(=O)NCc1ccc(OC)c(OC)c1
AC50 [1]: > 30 µM (inactive)

COC(=O)c1ccc2[nH]ccc2c1
IC50 (cells [2]): 42.7 µM (active)

CC1CCN(CC(=O)Nc2ccc(N3CCCCCC3)cc2)CC1
IC50 (Leucine aminopeptidase): 13 µM (active) | AC50 [3]: 0.448 µM (active) | AC50 [4]: 18 µM (active)

Oc1nc(Cc2ccc(F)cc2)nc2scc(-c3ccc(F)cc3)c12
AC50 [1]: 18 µM (active)

Cc1ccc(S(=O)(=O)NC2CCCCC2)c2nsnc12
EC50 (Mucolipin-3): 8.34 µM (active) | EC50 (Ion channel NompC): > 29.9 µM (not active)

COc1cccc(N2C(=O)C(Cl)=C(N3CCN(C/C=C/c4ccccc4)CC3)C2=O)c1
IC50 [5]: > 50 µM (inconclusive)

CC1=CC(C)(C)N(C(=O)CN2C(=O)c3ccccc3C2=O)c2ccccc21
EC50 (Mucolipin-3): 1.45 µM (active) | EC50 (Ion channel NompC): > 29.9 µM (not active)

O=C(/C=C/C(=O)N1CCc2ccccc2C1)N1CCc2ccccc2C1
IC50 (cells [6]): > 29.9 µM (inactive) | EC50 [7]: 1.14 µM (active) | IC50 [8]: 4.67 µM (active) | EC50 (cells [9]): > 29.9 µM (inactive)

COc1ccc(OC(=O)NCCc2ccccc2)cc1
EC50 [10]: 29 µM (active) | EC50 [11]: 49 µM (active) | EC50 (H4): 16.1 µM (active) | IC50 (cells [6]): > 29.9 µM (inactive) | EC50 [7]: 0.535 µM (active) | IC50 [8]: > 29.9 µM (inactive) | EC50 (cells [9]): > 29.9 µM (inactive)

O/N=C/c1ccc(-c2cc(Cl)ccc2Cl)o1
IC50 [12]: > 100 µM (active)

Oc1ccccc1-c1nc2c3ccccc3c3ccccc3c2[nH]1
CC50 [13]: 15.3 µM (active) | EC50 [14]: 2.55 µM (active) | EC50 (Streptokinase A): 4.11 µM (active) | EC50 (Streptococcus): 12 µM (active) | IC50 (cells [2]): 11 µM (active)

CCOc1cc(CNc2ccc(O)cc2)cc(Br)c1OCc1ccccc1F
IC50 [15]: 9.81 µM (not active) | CC50 [16]: 27.8 µM (active)

Cc1cc(NC(=O)C(C)SCC(=O)N(Cc2ccccc2)c2ccccc2)no1 (stereo unspecified)
CC50 [13]: 29.9 µM (active) | IC50 (Vero): > 25 µM (active) | IC50 (cells [2]): 39.6 µM (active)

COc1ccccc1CCNC(=O)C(=O)NCC1OCCN1S(=O)(=O)c1ccc(C)cc1 (stereo unspecified)
IC50 (cells [6]): > 29.9 µM (inactive) | EC50 [7]: 2.51 µM (active) | IC50 [8]: 7.91 µM (active) | EC50 (cells [9]): > 29.9 µM (inactive)

O=C(COC(=O)c1ccccc1Br)Nc1ccccc1F
IC50 [12]: > 100 µM (active)

Cc1c(C(=O)NC(C)C)oc2c1-c1n[nH]cc1CC2
IC50 [17]: > 50 µM (not active)

Cn1cccc1/C=C1/C(=O)NC(=O)N(Cc2ccccc2)C1=O
CC50 [16]: > 40 µM (active)

Nc1nnc(SCc2ccc(F)cc2)s1
IC50 [12]: > 100 µM (active)

C/C(N)=C(/C#N)C(=O)COC(=O)c1ccccc1Cc1ccccc1
CC50 [13]: 32.2 µM (active) | IC50 (cells [2]): 45 µM (active)

Cc1cc(C)c(S(=O)(=O)Nc2ccccc2-c2ccccc2)c(C)c1
EC50 (Mucolipin-3): 5.34 µM (active) | EC50 (Ion channel NompC): > 29.9 µM (not active)

CN(C)C(CNC(=O)CCNC(=O)c1ccc(Cl)cc1)c1ccco1 (stereo unspecified)
AC50 [1]: > 30 µM (inactive)
